In patent US7488740B2, “Substituted quinolin-4-ylamine analogues” (Neurogen Corporation, priority 2003, dated 2009) one finds IC50 data, which are given here for 22 compounds.

Bounds are passed on as bounds.

A word on the IC50: it is the point on the concentration scale where inhibition reaches its midpoint.

In this experiment the target is T1, human capsaicin receptor (Homo sapiens, UniProt Q8NER1).
T1 construct: A cDNA encoding full length human capsaicin receptor recited in U.S. Pat. No. 6,482,611 was subcloned in the plasmid pBK-CMV; expressed in transfected cells
T1 sequence (Q8NER1 whole entry): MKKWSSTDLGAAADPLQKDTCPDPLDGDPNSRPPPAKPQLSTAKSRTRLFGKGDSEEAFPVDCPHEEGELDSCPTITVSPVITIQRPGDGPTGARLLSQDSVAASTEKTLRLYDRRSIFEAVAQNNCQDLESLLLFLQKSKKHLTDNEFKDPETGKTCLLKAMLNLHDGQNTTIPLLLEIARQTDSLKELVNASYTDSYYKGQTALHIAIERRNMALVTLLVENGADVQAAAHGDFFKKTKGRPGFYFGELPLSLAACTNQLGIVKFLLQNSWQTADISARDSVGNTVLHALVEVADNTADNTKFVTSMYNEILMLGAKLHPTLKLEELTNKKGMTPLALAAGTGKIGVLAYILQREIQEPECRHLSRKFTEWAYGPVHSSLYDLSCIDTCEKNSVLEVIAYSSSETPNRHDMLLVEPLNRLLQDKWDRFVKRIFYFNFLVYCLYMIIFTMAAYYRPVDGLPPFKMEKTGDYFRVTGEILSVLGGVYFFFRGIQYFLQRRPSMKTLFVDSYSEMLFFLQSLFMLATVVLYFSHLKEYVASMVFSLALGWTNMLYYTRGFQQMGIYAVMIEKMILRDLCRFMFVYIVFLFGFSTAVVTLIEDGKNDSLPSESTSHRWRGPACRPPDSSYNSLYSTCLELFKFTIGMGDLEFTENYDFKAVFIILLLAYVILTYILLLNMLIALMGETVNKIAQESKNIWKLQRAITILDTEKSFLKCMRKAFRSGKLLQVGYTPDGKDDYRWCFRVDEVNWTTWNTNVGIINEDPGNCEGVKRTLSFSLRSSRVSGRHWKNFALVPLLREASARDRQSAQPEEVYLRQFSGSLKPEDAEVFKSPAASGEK
The experiment is described as follows: Calcium mobilization assay (Example 6). The class given is cell-based. Particulars: concentration required to provide a 50% decrease in the fluorescence response of cells exposed to one IC50 of capsaicin. In short, it runs like this:
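HEK293 clonal lines stably expressing full-length human capsaicin receptor, Fluo-3 AM loaded in KRH buffer pH 7.4. Compounds (final 1-5 μM) preincubated 0.5-6 h at room temperature in the dark, then capsaicin added at its predetermined IC50 concentration. FLIPR calcium signal at 30-60 s; IC50 = antagonist concentration giving 50% decrease.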
For `COCc1cc(Nc2ccc(C(F)(F)F)cc2)c2ccc(-c3ncccc3F)nc2n1` [Compound 62, 7-(3-fluoropyridin-2-yl)-2-(methoxymethyl)-N-[4-(trifluoromethyl)phenyl]-1,8-naphthyridin-4-amine], the IC50 is no more than 1000 nM. Consider `CC(=O)c1ccc(Nc2cc(COCC(C)C)nc3nc(-c4ncccc4Cl)ccc23)cc1` [Compound 63, 1-(4-{[7-(3-chloropyridin-2-yl)-2-(isobutoxymethyl)-1,8-naphthyridin-4-yl]amino}phenyl)ethanone], for which the IC50 is no more than 1000 nM. Then `CC(C)COCc1cc(Nc2ccc(C(C)(C)O)cc2)c2ccc(-c3ncccc3Cl)nc2n1` [Compound 64, 2-(4-{[7-(3-chloropyridin-2-yl)-2-(isobutoxymethyl)-1,8-naphthyridin-4-yl]amino}phenyl)propan-2-ol], with no more than 1000 nM; and `CC(C)COCc1cc(Nc2ccc(S(C)(=O)=O)cc2)c2ccc(-c3ncccc3C(F)(F)F)nc2n1` [Compound 65, 2-(isobutoxymethyl)-N-[4-(methylsulfonyl)phenyl]-7-[3-(trifluoromethyl)pyridin-2-yl]-1,8-naphthyridin-4-amine], with no more than 1000 nM. On to `CC(O)COCc1cc(Nc2ccc(C(F)(F)F)cc2)c2ccc(-c3ncccc3C(F)(F)F)nc2n1` (stereo not shown) [Compound 66, 1-({4-{[4-(trifluoromethyl)phenyl]amino}-7-[3-(trifluoromethyl)pyridin-2-yl]-1,8-naphthyridin-2-yl}methoxy)propan-2-ol], for which the IC50 was no more than 1000 nM.

As for `CC(=O)COCc1cc(Nc2ccc(C(F)(F)F)cc2)c2ccc(-c3ncccc3C(F)(F)F)nc2n1` [Compound 67, 1-({4-{[4-(trifluoromethyl)phenyl]amino}-7-[3-(trifluoromethyl)pyridin-2-yl]-1,8-naphthyridin-2-yl}methoxy)acetone], the IC50 is no more than 1000 nM. Then `CC(C)COCc1cc(Nc2ccc(S(=O)(=O)N(C)C)cc2)c2ccc(-c3ncccc3C(F)(F)F)nc2n1` [Compound 68, 4-({2-(isobutoxymethyl)-7-[3-(trifluoromethyl)pyridin-2-yl]-1,8-naphthyridin-4-yl]amino)-N,N-dimethylbenzenesulfonamide], with no more than 1000 nM; and `CN(Cc1cc(Nc2ccc(C(F)(F)F)cc2)c2ccc(-c3ncccc3C(F)(F)F)nc2n1)S(C)(=O)=O` [Compound 70, N-methyl-N-({4-{[4-(trifluoromethyl)phenyl]amino}-7-[3-(trifluoromethyl)pyridin-2-yl]-1,8-naphthyridin-2-yl}methyl)methanesulfonamide], with no more than 1000 nM; and `CCS(=O)(=O)N(C)Cc1cc(Nc2ccc(C(F)(F)F)cc2)c2ccc(-c3ncccc3C(F)(F)F)nc2n1` [Compound 71, N-methyl-N-({4-{[4-(trifluoromethyl)phenyl]amino}-7-[3-(trifluoromethyl)pyridin-2-yl]-1,8-naphthyridin-2-yl}methyl)ethanesulfonamide], with no more than 1000 nM. Then `CC(C)COCc1cc(Nc2ccc(S(=O)(=O)C(C)C)cc2)c2ccc(-c3ncccc3C(F)(F)F)nc2n1` [Compound 72, 2-(isobutoxymethyl)-N-[4-(isopropylsulfonyl)phenyl]-7-[3-(trifluoromethyl)pyridin-2-yl]-1,8-naphthyridin-4-amine], with no more than 1000 nM; and `CCCS(=O)(=O)c1ccc(Nc2cc(COCC(C)C)nc3nc(-c4ncccc4C(F)(F)F)ccc23)cc1` [Compound 73, 2-(isobutoxymethyl)-N-[4-(propylsulfonyl)phenyl]-7-[3-(trifluoromethyl)pyridin-2-yl]-1,8-naphthyridin-4-amine], with no more than 1000 nM; and `CC(C)COCc1cc(Nc2ccc(S(=O)(=O)C(F)(F)F)cc2)c2ccc(-c3ncccc3C(F)(F)F)nc2n1` [Compound 74, 2-(isobutoxymethyl)-7-[3-(trifluoromethyl)pyridin-2-yl]-N-{4-[(trifluoromethyl)sulfonyl]phenyl}-1,8-naphthyridin-4-amine], with no more than 1000 nM. Turning to `CC(C)C(=O)N(C)Cc1cc(Nc2ccc(C(F)(F)F)cc2)c2ccc(-c3ncccc3C(F)(F)F)nc2n1` [Compound 75, N,2-dimethyl-N-({4-{[4-(trifluoromethyl)phenyl]amino}-7-[3-(trifluoromethyl)pyridin-2-yl]-1,8-naphthyridin-2-yl}methyl)propanamide], the IC50 is no more than 1000 nM. Regarding `CN(CC(=O)O)Cc1cc(Nc2ccc(C(F)(F)F)cc2)c2ccc(-c3ncccc3C(F)(F)F)nc2n1` [Compound 76, N-methyl-N-({4-{[4-(trifluoromethyl)phenyl]amino}-7-[3-(trifluoromethyl)pyridin-2-yl]-1,8-naphthyridin-2-yl}methyl)glycine], the IC50 was no more than 1000 nM. `CCN(CCCO)Cc1cc(Nc2ccc(C(F)(F)F)cc2)c2ccc(-c3ncccc3C(F)(F)F)nc2n1` [Compound 77, 3-[ethyl({4-{[4-(trifluoromethyl)phenyl]amino}-7-[3-(trifluoromethyl)pyridin-2-yl]-1,8-naphthyridin-2-yl}methyl)amino]propan-1-ol]: the IC50 is no more than 1000 nM. As for `CC(C)N(CCCO)Cc1cc(Nc2ccc(C(F)(F)F)cc2)c2ccc(-c3ncccc3C(F)(F)F)nc2n1` [Compound 78, 3-[isopropyl({4-{[4-(trifluoromethyl)phenyl]amino}-7-[3-(trifluoromethyl)pyridin-2-yl]-1,8-naphthyridin-2-yl}methyl)amino]propan-1-ol], the IC50 was no more than 1000 nM. To `CCCN(CCCO)Cc1cc(Nc2ccc(C(F)(F)F)cc2)c2ccc(-c3ncccc3C(F)(F)F)nc2n1` [Compound 79] belongs no more than 1000 nM; to `CC(C)CN(Cc1cc(Nc2ccc(C(F)(F)F)cc2)c2ccc(-c3ncccc3C(F)(F)F)nc2n1)S(C)(=O)=O` [Compound 80, N-isobutyl-N-({4-{[4-(trifluoromethyl)phenyl]amino}-7-[3-(trifluoromethyl)pyridin-2-yl]-1,8-naphthyridin-2-yl}methyl)methanesulfonamide], no more than 1000 nM. `CC(C)CN(CC(=O)O)Cc1cc(Nc2ccc(C(F)(F)F)cc2)c2ccc(-c3ncccc3C(F)(F)F)nc2n1` [Compound 81, N-isobutyl-N-({4-{[4-(trifluoromethyl)phenyl]amino}-7-[3-(trifluoromethyl)pyridin-2-yl]-1,8-naphthyridin-2-yl}methyl)glycine]: the IC50 is no more than 1000 nM. With `CC(C)(O)COCc1cc(Nc2ccc(C(F)(F)F)cc2)c2ccc(-c3ncccc3C(F)(F)F)nc2n1` [Compound 82, 2-methyl-1-({4-{[4-(trifluoromethyl)phenyl]amino}-7-[3-(trifluoromethyl)pyridin-2-yl]-1,8-naphthyridin-2-yl}methoxy)propan-2-ol], the IC50 was no more than 1000 nM. As to `Cc1ccc(Nc2cc(COCC(C)C)nc3nc(-c4ncccc4C(F)(F)F)ccc23)nc1` [Compound 83, 2-(isobutoxymethyl)-N-(5-methylpyridin-2-yl)-7-[3-(trifluoromethyl)pyridin-2-yl]-1,8-naphthyridin-4-amine], the IC50 is no more than 1000 nM. Then `CC(C)COCc1cc(Nc2ccccn2)c2ccc(-c3ncccc3C(F)(F)F)nc2n1` [Compound 84, 2-(isobutoxymethyl)-N-pyridin-2-yl-7-[3-(trifluoromethyl)pyridin-2-yl]-1,8-naphthyridin-4-amine], with no more than 1000 nM.
